Each structure is given as a SMILES string.

A short description of one data set: in vitro. The note with it: human, hela cells, % viability.
As to `CCOC(=O)NC(=O)c1cn(N2CCOCC2)c(=O)[nH]c1=O` [CBK004845], the viability (usually a read-out of living cells in per cent, often relative to untreated cells) at 28.5 h, 10 µM is 104%. On to `CC(C)(C)c1ccc(C(=O)Nc2ccccc2C(=O)Nc2ccc(C(=O)O)cc2)cc1` [CBK268626], for which the viability at 28.5 h, 10 µM is 89.1%. Turning to `O=C(NCCNc1cnccn1)c1cncc(Br)c1` [CBK304278], the viability at 28.5 h, 10 µM came to 111%.

Regarding `CCn1cc(CN(C)Cc2nccs2)c2cc(C(=O)O)ncc21` [CBK306512], the viability at 28.5 h, 10 µM was 85.3%. In the case of `CN(C)CC/C=C1/c2ccccc2COc2ccc(CC(=O)O)cc21` [CBK200992], the viability at 28.5 h, 10 µM was determined as 92.4%.

In the case of `CC(=O)Nc1cccc(C(=O)OCC(=O)c2cccs2)c1` [CBK306040], the viability at 28.5 h, 10 µM turned out to be 105%. For the compound `CN1CCN(Cc2nc3c(c(=O)n(C)c(=O)n3C)n2CCc2ccccc2)CC1` [CBK269507], the viability at 28.5 h, 10 µM came to 96.2%. For the compound `COc1ccc(OCc2nc3ccccc3[nH]2)cc1` [CBK261030], the viability at 28.5 h, 10 µM stood at 94.8%. For `CCOC(=O)COc1ccc2nsnc2c1Cl` [CBK025603], the viability at 28.5 h, 10 µM is 91.4%.

With `Nc1ncc(-c2cccc(C(=O)O)c2)nc1-c1ccc(O)cc1` [CBK200420], the viability at 28.5 h, 10 µM amounted to 107%. Take `FC(F)CN1CCN(Cc2ccc(Oc3cnccn3)cc2)CC1` [CBK306399]: the viability at 28.5 h, 10 µM worked out at 101%. On to `c1coc(-c2nccnc2NCCc2c[nH]c3ccccc23)c1` [CBK037316], for which the viability at 28.5 h, 10 µM was found to be 95.2%. Same read-out and setting: the figure for `Clc1ccc(-n2ncc3c(NCc4ccccc4)ncnc32)cc1` [CBK287355] is 95.1%; for `C=C(C)CN1CCN(Cc2c[nH]nc2C(C)(C)C)CC1` [CBK282827] it is 92.6%; for `O=C(CSc1n[nH]c(=O)n1C1CCCCC1)NCc1ccc(N2CCCC2=O)cc1` [CBK299785] it is 105%. As for `CS(=O)(=O)c1ccc(-c2nccnc2N2CCN(c3ccncc3)CC2)cc1` [CBK036924], the viability at 28.5 h, 10 µM turned out to be 98.5%.

In the case of `CC(=O)Nc1cccc(C(=O)NC2CC(=O)N(C3CCCCCC3)C2)c1` (stereo not shown) [CBK307455], the viability at 28.5 h, 10 µM was determined as 102%.

In the case of `O=C1NC(=O)C(CCCCN2CCC3(CCN(C(=O)c4cc(F)c(F)cc4F)C3)C2)N1` (stereo not shown) [CBK132147], the viability at 28.5 h, 10 µM was determined as 84.8%. With `O=[N+]([O-])c1ccc(Sc2cccc(F)c2)nc1` [CBK002905], the viability at 28.5 h, 10 µM worked out at 103%.

On to `COc1ccc(C(c2ccccn2)N(C)C(=O)C2CCN(S(=O)(=O)C(C)C)CC2)cc1` (stereo not shown) [CBK060280], for which the viability at 28.5 h, 10 µM worked out at 88.2%. As for `CC(=O)N1CCC(C(=O)NCCc2cccc(C)c2)C1` (stereo not shown) [CBK281952], the viability at 28.5 h, 10 µM was found to be 110%. On to `CCN1CCN(C(=O)c2csnn2)CC1` [CBK200376], for which the viability at 28.5 h, 10 µM came out at 92.5%.

Turning to `Cc1ccc(C(=O)CC(C(=O)O)P(=O)(c2ccccc2)c2ccccc2)cc1` (stereo not shown) [CBK265022], the viability at 28.5 h, 10 µM came to 90.1%. Regarding `CC(=O)c1ccc(OCc2nc(N)nc(Nc3ccccc3)n2)cc1` [CBK297155], the viability at 28.5 h, 10 µM stood at 83.1%. On to `CN(C)c1ccc(/C=C(\C#N)c2nn(-c3ccccc3)c(N)c2C#N)cc1[N+](=O)[O-]` [CBK262532], for which the viability at 28.5 h, 10 µM came out at 83.4%. For `O=C(Nc1ccc(CCO)cc1)c1cnc(-c2ccc(Cl)cc2)c(-c2ccco2)c1` [CBK037457], the viability at 28.5 h, 10 µM came out at 97.5%. Regarding `COc1ccc(CN2CCCc3c(C)nc(C4CCCN(C(=O)C5CCC5)C4)nc32)cc1` (stereo not shown) [CBK286117], the viability at 28.5 h, 10 µM was determined as 95.1%. On the same count and under the same terms, the figure for `COc1ccc(CCNCC2OCCCc3cc(OC)c(OC)cc32)cc1OC` (stereo not shown) [CBK012466C] is 94%; for `CCC(CC)C(=O)Nc1nc(OCCN2CCCC2=O)cnc1-c1ccc(Cl)cc1Cl` [CBK145210] it is 92.6%. Consider `CCOC(=O)c1c(CN(C)C)n(-c2ccccc2)c2cc(Br)c(O)cc12` [CBK261309C], for which the viability at 28.5 h, 10 µM worked out at 83.4%. On to `COc1ccc(Cl)cc1NC(=O)CN(c1cccc(C(C)=O)c1)S(C)(=O)=O` [CBK267835], for which the viability at 28.5 h, 10 µM came out at 108%. In the case of `Cc1ccccc1C1(O)CCN(CC(O)c2ccccc2)CC1` (stereo not shown) [CBK282491], the viability at 28.5 h, 10 µM turned out to be 83.7%. Take `O=C(CCn1c(-c2cccnc2)cc2cccnc21)NC1CCCCC1` [CBK282647]: the viability at 28.5 h, 10 µM stood at 85.8%. Turning to `Cn1c(=O)n(CC#N)c2ccccc21` [CBK025636], the viability at 28.5 h, 10 µM came to 96.9%. On the same count and under the same terms, for `Cc1cc(Cl)ccc1OC(C)C(=O)Nc1cc(C(=O)O)cc(C(=O)O)c1` (stereo not shown) [CBK266483] the value was 103%; for `O=C(NCCCN1CCOCC1)c1cnn2c(-c3ccccc3)cc(-c3ccccc3)nc12` [CBK263046], 79.9%.

Regarding `O=CN1CCc2c([nH]c3ccccc23)C12CCCN(Cc1ccc(C(F)(F)F)cc1)C2` (stereo not shown) [CBK039587], the viability at 28.5 h, 10 µM came out at 92.6%. With `COc1ccc(Cl)cc1CN(C)C(=O)c1ccc(C)[nH]c1=O` [CBK305794], the viability at 28.5 h, 10 µM is 92.9%. `CC(=O)N1C[C@@H](c2ccsc2)[C@@H]2CN(CC3CCCCC3)CC[C@@H]21` [CBK284587]: the viability at 28.5 h, 10 µM came to 93%. Take `CCS(=O)(=O)c1ccc(C(=O)Nc2nc3c(F)cc(F)cc3s2)cc1` [CBK287727]: the viability at 28.5 h, 10 µM is 106%. As for `FC(F)(F)c1ccc(Oc2ccc(-c3noc(-c4cccnc4)n3)cc2)nc1` [CBK270166], the viability at 28.5 h, 10 µM came out at 90.3%.

Turning to `CC(C)c1nccn1-c1ccc(NC(=O)Cn2ccnc2)cc1` [CBK281381], the viability at 28.5 h, 10 µM was found to be 88.9%. For the compound `O=C(Cc1ccccc1)N/N=C/c1cccc2cccnc12` [CBK262778], the viability at 28.5 h, 10 µM amounted to 85.7%. With `COc1ccc(-c2noc(CNC(=O)Nc3ccccc3)n2)cc1OC` [CBK269900], the viability at 28.5 h, 10 µM stood at 88.3%.

For `COc1ccc(CCNC(=O)C2CCN(S(=O)(=O)c3ccccc3)CC2)cc1` [CBK264985], the viability at 28.5 h, 10 µM was determined as 95%. As for `N#Cc1cccnc1N1CCC(NC(=O)c2cc(Cl)c[nH]c2=O)CC1` [CBK306586], the viability at 28.5 h, 10 µM is 104%. Consider `O=C(CNS(=O)(=O)c1cccc(Cl)c1)Nc1ccc(-c2nc3ccccc3s2)cc1` [CBK267178], for which the viability at 28.5 h, 10 µM is 97.5%.

For `CCN(CC)C(=O)CNS(=O)(=O)c1ccc(OC)c(OC)c1` [CBK034499], the viability at 28.5 h, 10 µM stood at 103%. With `O=C(NCc1ccc(-c2csnn2)cc1)c1c(F)cccc1F` [CBK149310], the viability at 28.5 h, 10 µM turned out to be 86%. In the case of `CCn1cnc2c1CC/C(=N\O)C2` [CBK010044], the viability at 28.5 h, 10 µM stood at 80.6%. On the same count and under the same terms, for `CN1C[C@@H](NC(=O)Nc2ccccc2)C[C@H]1c1nc(-c2cnccn2)no1` [CBK288851] the value was 87.5%. For `O=C(c1cc[nH]n1)N1CCC2(CC1)Nc1ccccc1-n1cccc12` [CBK283652], the viability at 28.5 h, 10 µM came to 96.1%. With `CNC(=S)N(CCS(=O)(=O)c1ccc(Cl)cc1)Cc1cccs1` [CBK006431], the viability at 28.5 h, 10 µM worked out at 97.5%. Regarding `C/C(=N/OCC(=O)N/N=C/c1sc2ccccc2c1O)c1ccccc1` [CBK262266], the viability at 28.5 h, 10 µM amounted to 96.3%. Turning to `O=C1CCCN1CCOc1nccnc1-c1ccc(F)cc1` [CBK106895], the viability at 28.5 h, 10 µM stood at 98.7%. In the case of `CN1CC=C(/C=C/c2c[nH]c3ccccc23)CC1` [CBK283602], the viability at 28.5 h, 10 µM was determined as 89.4%. Regarding `CCn1c(=O)oc2cc(NC(=O)NCCCc3csc(N)n3)ccc21` [CBK307633], the viability at 28.5 h, 10 µM worked out at 79.7%.

For `COc1ccc(-c2cnc(NCC3CC3)c(C(=O)NCCc3c[nH]c4ccccc34)c2)cc1` [CBK076349], the viability at 28.5 h, 10 µM was 96.4%. As for `CCN(CC)C(=O)CN1CCC(Oc2cncc(OCCN3CCOCC3)n2)C1` (stereo not shown) [CBK084490], the viability at 28.5 h, 10 µM was 101%. Take `Cc1ccc(-c2nnc(CNC(=O)c3ccccc3-c3ccccc3)o2)s1` [CBK286298]: the viability at 28.5 h, 10 µM amounted to 89.2%. With `CC(=O)Nc1nc2cc3c(cc2s1)OCCO3` [CBK287618], the viability at 28.5 h, 10 µM came to 96.2%. With `OC(CNc1nccnc1-c1ccsc1)COc1ccccc1` (stereo not shown) [CBK037057], the viability at 28.5 h, 10 µM was 96.3%. As for `CCOc1ccc(-c2cncc(NCCc3c[nH]c4ccccc34)n2)cc1` [CBK065876], the viability at 28.5 h, 10 µM amounted to 93%. Still for that read-out and setting: the figure for `CCCCn1c(SCC(O)COCc2ccc(OC)c(OC)c2)n[nH]c1=O` (stereo not shown) [CBK296653] is 99.3%; for `CCc1nc(CN2CCCC(NC(C(N)=O)c3ccccc3)C2)no1` (stereo not shown) [CBK305348] it is 97.4%. `O=C(NCCCn1ccnc1)c1cccc(S(=O)(=O)N2CCCCC2)c1` [CBK304687]: the viability at 28.5 h, 10 µM was determined as 111%. As for `CC(C)(CO)CNc1cncc(-c2cc3ccccc3o2)n1` [CBK066029], the viability at 28.5 h, 10 µM came to 91.1%. Still for that read-out and setting: for `Cc1cc(C(F)(F)F)n(CC(C)CNC(=O)Cc2csc(C)n2)n1` (stereo not shown) [CBK306733] the value was 87.8%. `CCCCSc1nc(N)cc(N2CCC(N3CCOC3=O)CC2)n1` [CBK306974]: the viability at 28.5 h, 10 µM was determined as 82.1%.

Take `CN(CC(=O)Nc1cccnc1N1CCNCC1)C(=O)c1ccccc1` [CBK028264T]: the viability at 28.5 h, 10 µM amounted to 95.8%. On to `Cc1c(Cc2ccccc2)c(N2CCN(C/C=C/c3ccccc3)CC2)n2c(nc3ccccc32)c1C#N` [CBK263112], for which the viability at 28.5 h, 10 µM is 101%. On to `CC(CN(C)C(=O)c1cn[nH]c1C1CCNC1)Oc1ccc(Cl)c(Cl)c1` (stereo not shown) [CBK304786], for which the viability at 28.5 h, 10 µM amounted to 91.1%.

On to `CCS(=O)(=O)N1C[C@H]2CC[C@](O)(c3ccc(C)cc3)[C@H]2C1` [CBK285296], for which the viability at 28.5 h, 10 µM was determined as 107%. Consider `Cc1cc(C)n(CCC(=O)N2C[C@@H]3CCCCN(CC4CC4)[C@@H]3C2)n1` [CBK285505], for which the viability at 28.5 h, 10 µM is 102%.

Take `CC(C)C(C(=O)Nc1ccc(S(=O)(=O)N2CCOCC2)cc1)N1C(=O)c2ccccc2C1=O` (stereo not shown) [CBK265607]: the viability at 28.5 h, 10 µM was 97.6%. For `Oc1cccc(Sc2cc(N3CCCC3)ncn2)c1` [CBK093749], the viability at 28.5 h, 10 µM was found to be 97.4%. `O=C(CCn1c(C(F)F)cc2cccnc21)NCc1ccccn1` [CBK285068]: the viability at 28.5 h, 10 µM was determined as 100%. As to `CC(=O)Nc1ccc(-c2cncc(Nc3ccc(F)c(Cl)c3)n2)cc1` [CBK065765], the viability at 28.5 h, 10 µM came out at 96.1%.

The same data set, now with this note: human, hela cells, % viability, bulk resorufin, single well.
`c1ccc2c(-c3ccc4c(c3)COC3(CCNCC3)O4)cccc2c1` [CBK060951]: the viability at 28.5 h, 10 µM amounted to 92.5%.

Values taken from publication PMC12040169 (PLOS Biology, 2025).
